In PubChem BioAssay (NCI):
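Grown in 96-well plates, cells were treated for 48 hours with each compound at five concentrations. Insufficient inhibition: endpoint recorded as highest concentration tested. Here, GI50 denotes the concentration required for 50% inhibition of growth. TGI is the concentration that stops growth completely.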

How the values were obtained:
Test in all cases: NCI anticancer screen, dose series, 48 h; in the data active means GI50 below about 0.43 µM; inactive means the rest
SNB-19 CNS = tested on: SNB-19 CNS
A498 renal = tested on: A498 renal
SN12C renal = tested on: SN12C renal
HCT-116 colon = tested on: HCT-116 colon
HCT-15 colon = tested on: HCT-15 colon
OVCAR-8 ovarian = tested on: OVCAR-8 ovarian
MCF7 breast = tested on: MCF7 breast
UACC-257 melanoma = tested on: UACC-257 melanoma
PC-3 prostate = tested on: PC-3 prostate
HOP-62 NSCLC = tested on: HOP-62 NSCLC
DU-145 prostate = tested on: DU-145 prostate
NCI-H23 lung = tested on: NCI-H23 lung
U251 CNS = tested on: U251 CNS
K-562 leukemia = tested on: K-562 leukemia
OVCAR-3 ovarian = tested on: OVCAR-3 ovarian
HL-60(TB) leukemia = tested on: HL-60(TB) leukemia
MDA-MB-435 = tested on: MDA-MB-435
SF-539 CNS = tested on: SF-539 CNS
SW-620 colon = tested on: SW-620 colon
M14 melanoma = tested on: M14 melanoma
SF-295 CNS = tested on: SF-295 CNS
NCI-H522 lung = tested on: NCI-H522 lung
HT29 colon = tested on: HT29 colon
T-47D breast = tested on: T-47D breast
SK-MEL-5 melanoma = tested on: SK-MEL-5 melanoma
SF-268 CNS = tested on: SF-268 CNS
OVCAR-5 ovarian = tested on: OVCAR-5 ovarian
NCI/ADR-RES ovarian = tested on: NCI/ADR-RES ovarian
KM12 colon = tested on: KM12 colon
ACHN renal = tested on: ACHN renal
RPMI-8226 leukemia = tested on: RPMI-8226 leukemia
SK-MEL-28 melanoma = tested on: SK-MEL-28 melanoma
SR leukemia = tested on: SR leukemia
CCRF-CEM leukemia = tested on: CCRF-CEM leukemia
MDA-MB-231 breast = tested on: MDA-MB-231 breast
LOX IMVI melanoma = tested on: LOX IMVI melanoma
OVCAR-4 ovarian = tested on: OVCAR-4 ovarian
SNB-75 CNS = tested on: SNB-75 CNS
CAKI-1 renal = tested on: CAKI-1 renal
A549 NSCLC = tested on: A549 NSCLC
SK-OV-3 ovarian = tested on: SK-OV-3 ovarian
NCI-H226 lung = tested on: NCI-H226 lung
NCI-H460 lung = tested on: NCI-H460 lung
IGROV1 ovarian = tested on: IGROV1 ovarian
MOLT-4 leukemia = tested on: MOLT-4 leukemia
BT-549 breast = tested on: BT-549 breast
786-0 renal = tested on: 786-0 renal
UO-31 renal = tested on: UO-31 renal
HS 578T breast = tested on: HS 578T breast
SK-MEL-2 melanoma = tested on: SK-MEL-2 melanoma
COLO 205 colon = tested on: COLO 205 colon
HCC-2998 colon = tested on: HCC-2998 colon
TK-10 renal = tested on: TK-10 renal
MALME-3M melanoma = tested on: MALME-3M melanoma
HOP-92 NSCLC = tested on: HOP-92 NSCLC
EKVX NSCLC = tested on: EKVX NSCLC
RXF 393 renal = tested on: RXF 393 renal
UACC-62 melanoma = tested on: UACC-62 melanoma

NC(=S)N/N=C/C(=O)O
inactive: GI50 (SNB-19 CNS) > 100 µM | GI50 (A498 renal) > 100 µM | GI50 (SN12C renal) > 100 µM | GI50 (HCT-116 colon) 14.7 µM | GI50 (HCT-15 colon) > 100 µM | GI50 (OVCAR-8 ovarian) > 100 µM | GI50 (MCF7 breast) 5.58 µM | GI50 (UACC-257 melanoma) 30.1 µM | GI50 (PC-3 prostate) 67.7 µM | GI50 (HOP-62 NSCLC) > 100 µM | GI50 (DU-145 prostate) > 100 µM | GI50 (NCI-H23 lung) > 100 µM | GI50 (U251 CNS) > 100 µM | GI50 (K-562 leukemia) 27 µM | GI50 (OVCAR-3 ovarian) 31.7 µM | GI50 (HL-60(TB) leukemia) > 100 µM | GI50 (MDA-MB-435) > 100 µM | GI50 (SF-539 CNS) > 100 µM | GI50 (SW-620 colon) > 100 µM | GI50 (M14 melanoma) > 100 µM | GI50 (SF-295 CNS) > 100 µM | GI50 (NCI-H522 lung) > 100 µM | GI50 (HT29 colon) > 100 µM | GI50 (T-47D breast) 21.3 µM | GI50 (SK-MEL-5 melanoma) > 100 µM | GI50 (SF-268 CNS) > 100 µM | GI50 (OVCAR-5 ovarian) > 100 µM | GI50 (NCI/ADR-RES ovarian) 96.3 µM | GI50 (KM12 colon) > 100 µM | GI50 (ACHN renal) > 100 µM | GI50 (RPMI-8226 leukemia) > 100 µM | GI50 (SK-MEL-28 melanoma) > 100 µM | GI50 (SR leukemia) > 100 µM | GI50 (CCRF-CEM leukemia) 65.4 µM | GI50 (MDA-MB-231 breast) 81.6 µM | GI50 (LOX IMVI melanoma) > 100 µM | GI50 (OVCAR-4 ovarian) 37.5 µM | GI50 (SNB-75 CNS) > 100 µM | GI50 (CAKI-1 renal) > 100 µM | GI50 (A549 NSCLC) 96.8 µM | GI50 (SK-OV-3 ovarian) > 100 µM | GI50 (NCI-H226 lung) > 100 µM | GI50 (NCI-H460 lung) > 100 µM | GI50 (IGROV1 ovarian) 43.6 µM | GI50 (MOLT-4 leukemia) 72.5 µM | GI50 (BT-549 breast) > 100 µM | GI50 (786-0 renal) > 100 µM | GI50 (UO-31 renal) > 100 µM | GI50 (HS 578T breast) > 100 µM | GI50 (SK-MEL-2 melanoma) > 100 µM | GI50 (COLO 205 colon) > 100 µM
> 100 µM: TGI (SNB-19 CNS) | TGI (A498 renal) | TGI (SN12C renal) | TGI (HCT-116 colon) | TGI (HCT-15 colon) | TGI (OVCAR-8 ovarian) | TGI (MCF7 breast) | TGI (UACC-257 melanoma) | TGI (PC-3 prostate) | TGI (HOP-62 NSCLC) | TGI (DU-145 prostate) | TGI (NCI-H23 lung) | TGI (U251 CNS) | TGI (K-562 leukemia) | TGI (OVCAR-3 ovarian) | TGI (HL-60(TB) leukemia) | TGI (MDA-MB-435) | TGI (SF-539 CNS) | TGI (SW-620 colon) | TGI (M14 melanoma) | TGI (SF-295 CNS) | TGI (NCI-H522 lung) | TGI (HT29 colon) | TGI (T-47D breast) | TGI (SK-MEL-5 melanoma) | TGI (SF-268 CNS) | TGI (OVCAR-5 ovarian) | TGI (NCI/ADR-RES ovarian) | TGI (KM12 colon) | TGI (ACHN renal) | TGI (RPMI-8226 leukemia) | TGI (SK-MEL-28 melanoma) | TGI (SR leukemia) | TGI (CCRF-CEM leukemia) | TGI (MDA-MB-231 breast) | TGI (LOX IMVI melanoma) | TGI (OVCAR-4 ovarian) | TGI (SNB-75 CNS) | TGI (CAKI-1 renal) | TGI (A549 NSCLC) | TGI (SK-OV-3 ovarian) | TGI (NCI-H226 lung) | TGI (NCI-H460 lung) | TGI (IGROV1 ovarian) | TGI (MOLT-4 leukemia) | TGI (BT-549 breast) | TGI (786-0 renal) | TGI (UO-31 renal) | TGI (HS 578T breast) | TGI (SK-MEL-2 melanoma) | TGI (COLO 205 colon)

CC/C=C\C[C@H](O)C/C=C1/C(=O)C(Cl)=C[C@@H]1C/C=C\CCCC(=O)OC
2.22 µM: TGI (HCC-2998 colon) | TGI (NCI-H460 lung)
0.576 µM: TGI (HCT-116 colon)
3.51 µM: TGI (EKVX NSCLC)
0.849 µM: TGI (ACHN renal)
1.69 µM: TGI (COLO 205 colon)
1.56 µM: TGI (786-0 renal)
4.65 µM: TGI (SNB-75 CNS)
0.864 µM: TGI (OVCAR-8 ovarian)
3.31 µM: TGI (SNB-19 CNS)
0.717 µM: TGI (UACC-62 melanoma)
3.09 µM: TGI (TK-10 renal)
0.52 µM: TGI (LOX IMVI melanoma)
1.89 µM: TGI (CAKI-1 renal)
3.21 µM: TGI (OVCAR-4 ovarian)
3.43 µM: TGI (M14 melanoma)
3.35 µM: TGI (IGROV1 ovarian)
0.88 µM: TGI (RPMI-8226 leukemia)
1.31 µM: TGI (SK-MEL-28 melanoma)
3.05 µM: TGI (SF-539 CNS)
0.592 µM: TGI (NCI-H522 lung)
1.97 µM: TGI (NCI-H23 lung)
2.7 µM: TGI (DU-145 prostate)
1.73 µM: TGI (CCRF-CEM leukemia)
1.29 µM: TGI (SW-620 colon) | TGI (UO-31 renal)
1.67 µM: TGI (HCT-15 colon)
2.26 µM: TGI (NCI-H226 lung)
3.52 µM: TGI (SK-MEL-2 melanoma)
2.44 µM: TGI (MCF7 breast)
2.33 µM: TGI (PC-3 prostate)
inactive: GI50 (SNB-19 CNS) 0.946 µM | GI50 (HCC-2998 colon) 0.701 µM | GI50 (A498 renal) 3.65 µM | GI50 (TK-10 renal) 0.946 µM | GI50 (PC-3 prostate) 0.54 µM | GI50 (HOP-62 NSCLC) 0.53 µM | GI50 (DU-145 prostate) 0.692 µM | GI50 (NCI-H23 lung) 0.523 µM | GI50 (MALME-3M melanoma) 0.451 µM | GI50 (OVCAR-3 ovarian) 0.525 µM | GI50 (HL-60(TB) leukemia) 0.453 µM | GI50 (SF-539 CNS) 0.818 µM | GI50 (M14 melanoma) 0.611 µM | GI50 (HOP-92 NSCLC) 2.57 µM | GI50 (SF-295 CNS) 2.4 µM | GI50 (T-47D breast) 0.985 µM | GI50 (SK-MEL-5 melanoma) 0.489 µM | GI50 (EKVX NSCLC) 1.03 µM | GI50 (SF-268 CNS) 0.505 µM | GI50 (OVCAR-5 ovarian) 0.754 µM | GI50 (NCI/ADR-RES ovarian) 0.581 µM | GI50 (RXF 393 renal) 1.09 µM | GI50 (SK-MEL-28 melanoma) 0.432 µM | GI50 (MDA-MB-231 breast) 0.71 µM | GI50 (OVCAR-4 ovarian) 0.723 µM | GI50 (SNB-75 CNS) 1.88 µM | GI50 (CAKI-1 renal) 0.523 µM | GI50 (A549 NSCLC) 2.64 µM | GI50 (SK-OV-3 ovarian) 4.72 µM | GI50 (NCI-H226 lung) 0.537 µM | GI50 (NCI-H460 lung) 0.558 µM | GI50 (IGROV1 ovarian) 0.867 µM | GI50 (MOLT-4 leukemia) 0.472 µM | GI50 (786-0 renal) 0.486 µM | GI50 (HS 578T breast) 0.626 µM | GI50 (SK-MEL-2 melanoma) 0.843 µM | GI50 (COLO 205 colon) 0.55 µM
1.77 µM: TGI (SK-MEL-5 melanoma)
1.88 µM: TGI (OVCAR-3 ovarian)
1.95 µM: TGI (MOLT-4 leukemia)
1.07 µM: TGI (HT29 colon)
5.83 µM: TGI (SF-295 CNS)
7.52 µM: TGI (A549 NSCLC)
1.04 µM: TGI (BT-549 breast)
10.2 µM: TGI (A498 renal)
9.14 µM: TGI (NCI/ADR-RES ovarian)
16.5 µM: TGI (SK-OV-3 ovarian)
6.76 µM: TGI (HS 578T breast)
1.91 µM: TGI (HL-60(TB) leukemia)
4.37 µM: TGI (T-47D breast)
1.39 µM: TGI (U251 CNS)
active: GI50 (SN12C renal) 0.426 µM | GI50 (HCT-116 colon) 0.275 µM | GI50 (HCT-15 colon) 0.387 µM | GI50 (OVCAR-8 ovarian) 0.347 µM | GI50 (MCF7 breast) 0.185 µM | GI50 (U251 CNS) 0.339 µM | GI50 (K-562 leukemia) 0.269 µM | GI50 (MDA-MB-435) 0.404 µM | GI50 (SW-620 colon) 0.318 µM | GI50 (NCI-H522 lung) 0.271 µM | GI50 (HT29 colon) 0.406 µM | GI50 (KM12 colon) 0.387 µM | GI50 (ACHN renal) 0.378 µM | GI50 (RPMI-8226 leukemia) 0.21 µM | GI50 (CCRF-CEM leukemia) 0.412 µM | GI50 (LOX IMVI melanoma) 0.258 µM | GI50 (BT-549 breast) 0.341 µM | GI50 (UO-31 renal) 0.413 µM | GI50 (UACC-62 melanoma) 0.27 µM
16.7 µM: TGI (K-562 leukemia)
2.25 µM: TGI (HOP-62 NSCLC)
2.9 µM: TGI (MDA-MB-231 breast)
3.58 µM: TGI (RXF 393 renal)
1.23 µM: TGI (MALME-3M melanoma)
1.14 µM: TGI (KM12 colon)
2.34 µM: TGI (SF-268 CNS)
5.46 µM: TGI (HOP-92 NSCLC)
3.07 µM: TGI (OVCAR-5 ovarian)
1.33 µM: TGI (SN12C renal)
1.22 µM: TGI (MDA-MB-435)
